Measured values: ChEMBL document CHEMBL4834487, “Model studies towards prodrugs of the glutamine antagonist 6-diazo-5-oxo-l-norleucine (DON) containing a diazo precursor” (Bioorg Med Chem Lett, 2021)

How the values were obtained:
[1] = Metabolic stability in pig liver homogenate assessed as parent compound remaining measured after 30 mins; assay type: ADME, tissue-based, Sus scrofa; details: read-out: Stabilty
[2] = Drug metabolism in pig brain homogenate assessed as N-acetyl-6-Diazo-5-oxo-L-norleucin formation by ion chromatogram analysis; assay type: ADME, tissue-based, Sus scrofa
[3] = Metabolic stability in pig brain homogenate assessed as parent compound remaining measured after 30 mins; assay type: ADME, tissue-based, Sus scrofa; details: read-out: Stabilty
[4] = Stability of the compound in DMSO measured for 24 hrs; assay type: physicochemical
[5] = Stability of compound in sodium acetate buffer at pH 4 assessed as parent compound remaining measured after 60 mins; assay type: physicochemical; details: read-out: Stabilty
[6] = Stability of compound in potassium phosphate buffer at pH 7.4 assessed as parent compound remaining measured after 30 mins; assay type: physicochemical; details: read-out: Stabilty
[7] = Drug metabolism in pig brain homogenate assessed as 6-Diazo-5-oxo-L-norleucin formation by ion chromatogram analysis; assay type: ADME, tissue-based, Sus scrofa
[8] = Stability of the compound in DMSO measured within 12 hrs; assay type: physicochemical

Row | remaining at 0.5 h [1] [%] | Drug metabolism [2] | remaining at 0.5 h [3] [%] | Stabilty [4] | remaining at 1 h [5] [%] | remaining at 0.5 h [6] [%] | Drug metabolism [7] | Stabilty [8] | Compound
1 | < 5 | Metabolite_Detected | < 5 | Stable | > 95 | < 5 | Metabolite_Notdetected | – | CC(=O)N[C@@H](CCC(=O)Cn1nnc2c(C(N)=O)ncn2c1=O)C(=O)O
2 | – | – | – | – | – | – | – | Unstable | CC(=O)NC(CCC(=O)CN(N=O)C(=O)OCc1ccccc1)C(=O)O (stereo not drawn)
